From US9790210B2, “N-(monocyclic aryl),N'-pyrazolyl-urea, thiourea, guanidine and cyanoguanidine compounds as TrkA kinase inhibitors” (Array BioPharma Inc., priority 2012, dated 2017)

Columns and labels:
Experiment in all cases: KinaseProfiler
Format in all cases: biochemical
Conditions in all cases: 10 μM, ATP near Km
STK33 = target: T1, STK33 (Homo sapiens, UniProt Q9BYT3)
T1 construct: purchased Millipore, Inc. (KinaseProfiler service)
How it was run: (§1)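 Duplicate determinations at 10 μM test compound; ATP approx. Km for each target. POC reported as replicate mean.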

IRAK4 = target: T2, IRAK4 (Homo sapiens, UniProt Q9NWZ3)
T2 construct: purchased Millipore, Inc. (KinaseProfiler service)
How it was run: as §1

CDK6/cyclinD3 = target: T3, CDK6/cyclinD3 (Homo sapiens, UniProt Q00534)
T3 construct: purchased Millipore, Inc. (KinaseProfiler service)
How it was run: as §1

SRC = target: T4, SRC (Homo sapiens, UniProt P12931)
T4 construct: purchased Millipore, Inc. (KinaseProfiler service)
How it was run: as §1

EphB1 = target: T5, EphB1 (Homo sapiens, UniProt P54762)
T5 construct: purchased Millipore, Inc. (KinaseProfiler service)
How it was run: as §1

CAMK2g = target: T6, CAMK2g (Homo sapiens, UniProt Q13555)
T6 construct: purchased Millipore (KinaseProfiler service)
How it was run: as §1

LIMK1 = target: T7, LIMK1 (Homo sapiens, UniProt P53667)
T7 construct: purchased Millipore, Inc. (KinaseProfiler service)
How it was run: as §1

FGFR4 = target: T8, FGFR4 (Homo sapiens, UniProt P22455)
T8 construct: purchased Millipore, Inc. (KinaseProfiler service)
How it was run: as §1

Tie2 = target: T9, Tie2 (Homo sapiens, UniProt Q02763)
T9 construct: purchased Millipore, Inc. (KinaseProfiler service)
How it was run: as §1

Mer = target: T10, Mer (Homo sapiens, UniProt Q12866)
T10 construct: purchased Millipore, Inc. (KinaseProfiler service)
How it was run: as §1

WNK3 = target: T11, WNK3 (Homo sapiens, UniProt Q9BYP7)
T11 construct: purchased Millipore, Inc. (KinaseProfiler service)
How it was run: as §1

Plk1 = target: T12, Plk1 (Homo sapiens, UniProt P53350)
T12 construct: purchased Millipore, Inc. (KinaseProfiler service)
How it was run: as §1

KDR = target: T13, KDR (Homo sapiens, UniProt P35968)
T13 construct: purchased Millipore, Inc. (KinaseProfiler service)
How it was run: as §1

PKCbetaII = target: T14, PKCbetaII (Homo sapiens, UniProt P05771)
T14 construct: purchased Millipore, Inc. (KinaseProfiler service)
How it was run: as §1

FGFR2 = target: T15, FGFR2 (Homo sapiens, UniProt P21802)
T15 construct: purchased Millipore, Inc. (KinaseProfiler service)
How it was run: as §1

TLK2 = target: T16, TLK2 (Homo sapiens, UniProt Q86UE8)
T16 construct: purchased Millipore, Inc. (KinaseProfiler service)
How it was run: as §1

MARK1 = target: T17, MARK1 (Homo sapiens, UniProt Q9P0L2)
T17 construct: purchased Millipore, Inc. (KinaseProfiler service)
How it was run: as §1

PAK4 = target: T18, PAK4 (Homo sapiens, UniProt O96013)
T18 construct: purchased Millipore, Inc. (KinaseProfiler service)
How it was run: as §1

GSK3beta = target: T19, GSK3beta (Homo sapiens, UniProt P49841)
T19 construct: purchased Millipore, Inc. (KinaseProfiler service)
How it was run: as §1

GSK3alpha = target: T20, GSK3alpha (Homo sapiens, UniProt P49840)
T20 construct: purchased Millipore, Inc. (KinaseProfiler service)
How it was run: as §1

ErbB4 = target: T21, ErbB4 (Homo sapiens, UniProt Q15303)
T21 construct: purchased Millipore, Inc. (KinaseProfiler service)
How it was run: as §1

PTK6 = target: T22, PTK6 (Homo sapiens, UniProt Q13882)
T22 construct: purchased Millipore, Inc. (KinaseProfiler service)
How it was run: as §1

IR Activated = target: T23, IR Activated (Homo sapiens, UniProt P06213)
T23 construct: purchased Millipore, Inc. (KinaseProfiler service)
How it was run: as §1

PRKG1beta = target: T24, PRKG1beta (Homo sapiens, UniProt Q13976)
T24 construct: purchased Millipore, Inc. (KinaseProfiler service)
How it was run: as §1

MuSK = target: T25, MuSK (Homo sapiens, UniProt O15146)
T25 construct: purchased Millipore, Inc. (KinaseProfiler service)
How it was run: as §1

PrKX = target: T26, PrKX (Homo sapiens, UniProt P51817)
T26 construct: purchased Millipore, Inc. (KinaseProfiler service)
How it was run: as §1

IRAK1 = target: T27, IRAK1 (Homo sapiens, UniProt P51617)
T27 construct: purchased Millipore, Inc. (KinaseProfiler service)
How it was run: as §1

CAMK2b = target: T28, CAMK2b (Homo sapiens, UniProt Q13554)
T28 construct: purchased Millipore (KinaseProfiler service)
How it was run: as §1

SRPK2 = target: T29, SRPK2 (Homo sapiens, UniProt P78362)
T29 construct: purchased Millipore, Inc. (KinaseProfiler service)
How it was run: as §1

Rsk2 = target: T30, Rsk2 (Homo sapiens, UniProt P51812)
T30 construct: purchased Millipore, Inc. (KinaseProfiler service)
How it was run: as §1

ERK1 = target: T31, ERK1 (Homo sapiens, UniProt P27361)
T31 construct: purchased Millipore, Inc. (KinaseProfiler service)
How it was run: as §1

PAK2 = target: T32, PAK2 (Homo sapiens, UniProt Q13177)
T32 construct: purchased Millipore, Inc. (KinaseProfiler service)
How it was run: as §1

BrSK2 = target: T33, BrSK2 (Homo sapiens, UniProt Q8IWQ3)
T33 construct: purchased Millipore (KinaseProfiler service)
How it was run: as §1

TAO3 = target: T34, TAO3 (Homo sapiens, UniProt Q9H2K8)
T34 construct: purchased Millipore, Inc. (KinaseProfiler service)
How it was run: as §1

BrSK1 = target: T35, BrSK1 (Homo sapiens, UniProt Q8TDC3)
T35 construct: purchased Millipore (KinaseProfiler service)
How it was run: as §1

MRCKbeta = target: T36, MRCKbeta (Homo sapiens, UniProt Q9Y5S2)
T36 construct: purchased Millipore, Inc. (KinaseProfiler service)
How it was run: as §1

AMPK(A1/B1/G1) = target: T37, AMPK(A1/B1/G1) (Homo sapiens, UniProt Q13131)
T37 construct: purchased Millipore (KinaseProfiler service)
How it was run: as §1

MRCKalpha = target: T38, MRCKalpha (Homo sapiens, UniProt Q5VT25)
T38 construct: purchased Millipore, Inc. (KinaseProfiler service)
How it was run: as §1

Axl = target: T39, Axl (Homo sapiens, UniProt P30530)
T39 construct: purchased Millipore (KinaseProfiler service)
How it was run: as §1

Ros = target: T40, Ros (Homo sapiens, UniProt P08922)
T40 construct: purchased Millipore, Inc. (KinaseProfiler service)
How it was run: as §1

MKK7beta = target: T41, MKK7beta (Homo sapiens, UniProt O14733)
T41 construct: purchased Millipore, Inc. (KinaseProfiler service)
How it was run: as §1

T4 sequence (P12931 whole entry): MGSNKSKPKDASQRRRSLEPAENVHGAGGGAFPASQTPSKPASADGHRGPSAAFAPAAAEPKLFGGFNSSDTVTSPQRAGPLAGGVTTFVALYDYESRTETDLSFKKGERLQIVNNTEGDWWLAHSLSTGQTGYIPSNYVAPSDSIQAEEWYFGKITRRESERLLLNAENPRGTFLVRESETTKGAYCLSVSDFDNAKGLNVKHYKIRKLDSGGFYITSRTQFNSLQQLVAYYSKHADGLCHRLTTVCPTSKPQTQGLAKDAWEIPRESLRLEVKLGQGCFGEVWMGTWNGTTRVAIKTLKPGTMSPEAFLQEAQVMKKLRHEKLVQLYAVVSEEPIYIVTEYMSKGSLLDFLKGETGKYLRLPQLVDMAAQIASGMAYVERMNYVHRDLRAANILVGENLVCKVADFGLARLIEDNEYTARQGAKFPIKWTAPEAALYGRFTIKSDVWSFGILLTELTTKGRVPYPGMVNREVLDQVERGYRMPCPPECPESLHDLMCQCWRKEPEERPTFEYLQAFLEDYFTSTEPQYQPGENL
T14 sequence (P05771 1-673 isoform P05771-2): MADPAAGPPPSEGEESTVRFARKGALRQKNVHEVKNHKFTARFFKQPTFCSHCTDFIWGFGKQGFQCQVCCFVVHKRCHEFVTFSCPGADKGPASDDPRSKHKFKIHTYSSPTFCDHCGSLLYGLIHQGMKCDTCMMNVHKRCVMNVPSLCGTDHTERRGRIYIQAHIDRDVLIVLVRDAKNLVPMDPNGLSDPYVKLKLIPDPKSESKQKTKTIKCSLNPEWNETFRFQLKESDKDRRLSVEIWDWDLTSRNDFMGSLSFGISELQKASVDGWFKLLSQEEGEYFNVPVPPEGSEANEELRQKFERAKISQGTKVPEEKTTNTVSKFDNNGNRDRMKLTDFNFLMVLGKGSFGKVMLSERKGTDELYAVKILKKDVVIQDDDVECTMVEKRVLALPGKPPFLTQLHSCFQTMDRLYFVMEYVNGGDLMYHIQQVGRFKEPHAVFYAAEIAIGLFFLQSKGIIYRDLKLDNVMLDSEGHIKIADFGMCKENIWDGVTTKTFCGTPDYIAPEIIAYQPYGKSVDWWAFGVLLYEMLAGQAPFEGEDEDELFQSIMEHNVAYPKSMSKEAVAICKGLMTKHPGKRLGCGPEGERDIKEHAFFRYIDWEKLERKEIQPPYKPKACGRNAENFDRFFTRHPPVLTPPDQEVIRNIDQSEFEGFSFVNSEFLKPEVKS
T37 sequence (Q13131 whole entry): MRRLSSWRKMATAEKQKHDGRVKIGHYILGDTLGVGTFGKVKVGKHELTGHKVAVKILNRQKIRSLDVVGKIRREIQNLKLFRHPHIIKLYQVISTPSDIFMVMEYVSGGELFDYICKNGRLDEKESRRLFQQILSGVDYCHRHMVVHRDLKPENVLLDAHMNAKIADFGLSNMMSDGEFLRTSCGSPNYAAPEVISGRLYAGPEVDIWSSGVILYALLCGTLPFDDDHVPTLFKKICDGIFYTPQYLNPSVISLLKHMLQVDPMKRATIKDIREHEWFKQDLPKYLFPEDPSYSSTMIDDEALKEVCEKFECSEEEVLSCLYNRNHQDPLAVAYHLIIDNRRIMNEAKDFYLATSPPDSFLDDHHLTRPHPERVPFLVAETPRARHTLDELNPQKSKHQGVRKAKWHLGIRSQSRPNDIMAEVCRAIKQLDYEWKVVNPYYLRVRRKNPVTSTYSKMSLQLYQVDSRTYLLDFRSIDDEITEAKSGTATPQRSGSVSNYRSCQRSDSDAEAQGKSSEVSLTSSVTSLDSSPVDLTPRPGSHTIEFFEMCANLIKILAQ
T37 sequence (Q9Y478 whole entry partner): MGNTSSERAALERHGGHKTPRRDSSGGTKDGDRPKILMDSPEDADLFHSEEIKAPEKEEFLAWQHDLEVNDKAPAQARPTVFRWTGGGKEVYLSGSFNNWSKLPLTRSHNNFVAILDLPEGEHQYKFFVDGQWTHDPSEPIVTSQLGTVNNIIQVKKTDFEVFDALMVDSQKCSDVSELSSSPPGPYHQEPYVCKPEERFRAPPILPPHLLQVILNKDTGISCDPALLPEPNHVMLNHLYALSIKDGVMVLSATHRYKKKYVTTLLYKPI
T37 sequence (P54619 whole entry partner): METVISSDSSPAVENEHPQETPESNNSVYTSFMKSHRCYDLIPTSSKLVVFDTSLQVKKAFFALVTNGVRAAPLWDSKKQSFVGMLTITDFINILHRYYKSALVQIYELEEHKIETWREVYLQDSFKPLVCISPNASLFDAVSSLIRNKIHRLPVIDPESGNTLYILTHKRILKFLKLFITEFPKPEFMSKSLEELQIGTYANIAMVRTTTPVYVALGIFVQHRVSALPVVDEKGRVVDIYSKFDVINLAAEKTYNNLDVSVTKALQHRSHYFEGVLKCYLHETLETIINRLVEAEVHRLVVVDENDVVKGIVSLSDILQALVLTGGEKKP
T26 sequence (P51817 whole entry): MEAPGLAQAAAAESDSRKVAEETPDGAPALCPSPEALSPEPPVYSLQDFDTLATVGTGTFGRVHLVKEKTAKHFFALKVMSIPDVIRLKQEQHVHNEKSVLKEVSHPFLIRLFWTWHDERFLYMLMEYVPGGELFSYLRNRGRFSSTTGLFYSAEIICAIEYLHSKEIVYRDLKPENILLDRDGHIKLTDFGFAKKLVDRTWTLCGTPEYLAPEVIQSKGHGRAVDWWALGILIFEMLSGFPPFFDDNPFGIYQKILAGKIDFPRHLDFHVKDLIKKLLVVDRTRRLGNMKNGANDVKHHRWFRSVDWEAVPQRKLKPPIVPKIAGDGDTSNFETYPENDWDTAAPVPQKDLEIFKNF
T11 sequence (Q9BYP7 whole entry): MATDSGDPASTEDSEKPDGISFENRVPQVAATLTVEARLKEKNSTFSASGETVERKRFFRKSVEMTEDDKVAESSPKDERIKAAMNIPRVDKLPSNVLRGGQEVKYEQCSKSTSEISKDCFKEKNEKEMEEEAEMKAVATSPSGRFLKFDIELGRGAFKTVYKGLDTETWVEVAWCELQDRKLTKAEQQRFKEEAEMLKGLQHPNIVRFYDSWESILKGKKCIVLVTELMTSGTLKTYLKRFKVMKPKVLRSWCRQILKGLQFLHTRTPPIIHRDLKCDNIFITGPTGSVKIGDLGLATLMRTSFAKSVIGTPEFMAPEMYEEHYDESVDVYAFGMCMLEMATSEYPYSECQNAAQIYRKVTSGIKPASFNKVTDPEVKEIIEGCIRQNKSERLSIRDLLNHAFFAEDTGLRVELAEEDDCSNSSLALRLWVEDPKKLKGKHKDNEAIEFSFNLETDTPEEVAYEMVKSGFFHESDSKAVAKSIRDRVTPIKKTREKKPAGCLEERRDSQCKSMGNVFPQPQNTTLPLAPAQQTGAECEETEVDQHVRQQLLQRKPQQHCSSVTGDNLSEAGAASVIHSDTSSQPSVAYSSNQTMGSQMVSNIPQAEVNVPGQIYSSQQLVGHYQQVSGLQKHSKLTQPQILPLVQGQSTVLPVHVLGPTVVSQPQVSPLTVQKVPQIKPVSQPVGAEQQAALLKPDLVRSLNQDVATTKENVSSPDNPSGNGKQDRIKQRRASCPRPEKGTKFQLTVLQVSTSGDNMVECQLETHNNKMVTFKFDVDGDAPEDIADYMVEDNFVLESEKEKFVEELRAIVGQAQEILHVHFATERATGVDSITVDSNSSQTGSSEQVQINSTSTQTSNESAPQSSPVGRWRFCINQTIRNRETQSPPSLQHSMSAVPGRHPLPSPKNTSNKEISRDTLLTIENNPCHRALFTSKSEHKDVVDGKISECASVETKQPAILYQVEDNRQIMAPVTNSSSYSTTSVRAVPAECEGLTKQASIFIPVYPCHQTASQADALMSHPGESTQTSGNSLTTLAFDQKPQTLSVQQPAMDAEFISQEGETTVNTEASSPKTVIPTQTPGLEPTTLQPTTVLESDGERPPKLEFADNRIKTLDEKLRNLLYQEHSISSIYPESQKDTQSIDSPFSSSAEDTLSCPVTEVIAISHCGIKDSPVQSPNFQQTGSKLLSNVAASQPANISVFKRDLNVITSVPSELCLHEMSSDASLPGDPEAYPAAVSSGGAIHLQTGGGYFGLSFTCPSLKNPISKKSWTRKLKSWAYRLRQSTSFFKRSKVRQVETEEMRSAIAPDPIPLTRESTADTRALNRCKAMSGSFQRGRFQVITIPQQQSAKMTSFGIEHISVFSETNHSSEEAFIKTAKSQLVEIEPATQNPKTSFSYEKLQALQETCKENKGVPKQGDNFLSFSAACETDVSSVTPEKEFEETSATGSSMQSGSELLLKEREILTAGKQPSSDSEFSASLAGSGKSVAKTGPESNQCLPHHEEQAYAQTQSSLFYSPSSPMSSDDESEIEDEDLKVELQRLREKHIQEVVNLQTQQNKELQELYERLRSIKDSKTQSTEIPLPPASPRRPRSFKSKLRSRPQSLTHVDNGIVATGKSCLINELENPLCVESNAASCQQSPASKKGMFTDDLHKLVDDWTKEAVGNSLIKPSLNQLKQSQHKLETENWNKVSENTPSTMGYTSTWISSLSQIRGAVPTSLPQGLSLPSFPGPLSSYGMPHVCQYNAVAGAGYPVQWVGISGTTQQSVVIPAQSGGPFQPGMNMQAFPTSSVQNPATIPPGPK
T1 sequence (Q9BYT3 whole entry): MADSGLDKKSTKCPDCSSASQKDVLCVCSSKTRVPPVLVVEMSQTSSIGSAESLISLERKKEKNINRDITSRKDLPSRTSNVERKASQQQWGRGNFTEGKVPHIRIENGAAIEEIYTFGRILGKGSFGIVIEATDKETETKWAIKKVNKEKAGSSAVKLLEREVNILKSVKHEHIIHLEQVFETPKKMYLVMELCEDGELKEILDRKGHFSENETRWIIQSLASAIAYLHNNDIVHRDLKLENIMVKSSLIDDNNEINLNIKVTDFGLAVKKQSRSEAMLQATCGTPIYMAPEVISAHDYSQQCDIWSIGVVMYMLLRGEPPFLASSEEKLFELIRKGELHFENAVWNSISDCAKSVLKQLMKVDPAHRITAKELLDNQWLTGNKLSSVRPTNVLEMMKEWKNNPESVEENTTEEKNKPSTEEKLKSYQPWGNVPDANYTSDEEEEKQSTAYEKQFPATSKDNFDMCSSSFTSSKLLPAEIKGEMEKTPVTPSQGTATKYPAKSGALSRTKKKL

Avg POC (STK33): 104.5 POC | Avg POC (IRAK4): 124.5 POC | Avg POC (CDK6/cyclinD3): 111 POC | Avg POC (SRC): 90 POC | Avg POC (EphB1): 130 POC | Avg POC (CAMK2g): 103 POC | Avg POC (LIMK1): 93.5 POC | Avg POC (FGFR4): 120 POC | Avg POC (Tie2): 160.5 POC | Avg POC (Mer): 97.5 POC | Avg POC (WNK3): 108.5 POC | Avg POC (Plk1): 89.5 POC | Avg POC (KDR): 136 POC | Avg POC (PKCbetaII): 99 POC | Avg POC (FGFR2): 108 POC | Avg POC (TLK2): 101 POC | Avg POC (MARK1): 107 POC | Avg POC (PAK4): 110.5 POC | Avg POC (GSK3beta): 114.5 POC | Avg POC (GSK3alpha): 131 POC | Avg POC (ErbB4): 118.5 POC | Avg POC (PTK6): 124 POC | Avg POC (IR Activated): 119.5 POC | Avg POC (PRKG1beta): 130 POC | Avg POC (MuSK): 100 POC | Avg POC (PrKX): 134 POC | Avg POC (IRAK1): 103 POC | Avg POC (CAMK2b): 101.5 POC | Avg POC (SRPK2): 113.5 POC | Avg POC (Rsk2): 136.5 POC | Avg POC (ERK1): 103.5 POC | Avg POC (PAK2): 101.5 POC | Avg POC (BrSK2): 123 POC | Avg POC (TAO3): 95 POC | Avg POC (BrSK1): 123.5 POC | Avg POC (MRCKbeta): 105.5 POC | Avg POC (AMPK(A1/B1/G1)): 149 POC | Avg POC (MRCKalpha): 137 POC | Avg POC (Axl): 107 POC | Avg POC (Ros): 105.5 POC | Avg POC (MKK7beta): 140 POC
SMILES: COCCCc1cc(Cl)c(Cl)cc1NC(=O)Nc1c(C)c(-c2cnn(C)c2)nn1-c1ccccc1 [Example 15, 1-(4,5-dichloro-2-(3-methoxypropyl)phenyl)-3-(1′,4-dimethyl-1-phenyl-1H,1′H-[3,4′-bipyrazol]-5-yl)urea]
